Test results from patent US20240302356A1, “METHOD FOR DETERMINING A TOXICITY AND/OR GROWTH PROMOTION EFFECT OF A TREATMENT OR COMPOUND” (priority 2021, published 2024).
Where two headings read alike, the source gives them in different places.

Experiments:
A. thaliana leaves = A. thaliana leaves cultivated in a hydroponic system, flow cytometry; assay type: in vivo, Arabidopsis thaliana
Method: To investigate whether the tipping point can also be determined using another cultivation system, A. thaliana plants were grown in a hydroponic system and exposed to a Cd concentration range after 11 days. Since results are promising for young seedlings, it was also investigated whether the invention works in plants of different ages. Therefore, individual samples of the first and the third leaf were harvested at different time points.
LEAF 1: FIG. 11 illustrates flow cytometry data of the first A. thaliana leaf exposed to a Cd range (1-10 μM Cd) after 11 days and harvested at different time points (12-21 days). Data are expressed relative to the unexposed condition (0 μM Cd=1.0). A) Endoreplication index (EI); B) Relative ploidy level; C) Relative ratios of consecutive ploidy levels; D) EIDEFENCE; and E) EIGROWTH. One-way ANOVA compared to the unexposed condition: * p<0.05. […] As known from literature, the maximum ploidy level of young leaves is lower than in mature plants. This is confirmed by the different ploidy levels observed, see FIG. 11B: leaf 1 reaches ploidy levels up to 8C after 12 days, 16C after 14 days and the highest ploidy level of 32C was only reached after 18 days. This shift in maximum ploidy level is hypothesized to influence the tipping point. Therefore, at each age, the tipping point is identified. […] This is confirmed by increased 8C/16C ratios, see FIG. 11C.
LEAF 3: FIG. 12 illustrates flow cytometry data of the third A. thaliana leaf exposed to a Cd range (1-10 μM Cd) after 11 days and harvested at different time points (14-21 days). Data are expressed relative to the unexposed condition (0 μM Cd=1.0). A) Endoreplication index (EI); B) Relative ploidy level; C) Relative ratios of consecutive ploidy levels; D) EIDEFENCE; and E) EIGROWTH. One-way ANOVA compared to the unexposed condition: * p<0.05. […] The different ploidy levels observed confirm the lower maximum ploidy level in young leaves, see FIG. 12B: leaf 3 reaches ploidy levels up to 8C after 14 days, 16C after 18 days and 32C after 21 days. At day 14, leaf 3 was focused on normal cell division as evidenced by the elevated 2C ratio.

[1] = system: D. caryophyllus seedlings; assay: D. caryophyllus seedlings in 48-well microtiter plate with 1/4 MS medium, flow cytometry; assay type: in vivo, Dianthus caryophyllus; conditions: 9 days
Method: Since results are promising for young seedlings of A. thaliana, it was also investigated whether the invention works in other plant species. To investigate whether the tipping point can also be determined using another plant species, tetraploid D. caryophyllus plants (i.e., basic ploidy level is 4C) were grown in a 48-well microtiter plate with ¼ MS medium and exposed to a Cd concentration range between 0 and 50 μM Cd. FIG. 13 illustrates flow cytometry data of D. caryophyllus seedlings exposed to a Cd range (10-50 μM Cd) and harvested after 9 days. Data are expressed relative to the control condition shown by the horizontal line (1.0). A) Average number of nuclei per microliter of carrier fluid; B) Endoreplication index (EI); C) Relative ploidy level; D) Relative ratios of consecutive ploidy levels; E) EIDEFENCE; and F) EIGROWTH. One-way ANOVA compared to the unexposed condition: * p<0.05.

Tobacco nicotiana = Tobacco nicotiana seedlings, flow cytometry (Experiments A1.1, A1.2); assay type: in vivo; conditions: plant seedlings, Cd, Experiment A1.1
Description: (§1) FIGS. 14A and B illustrates from left to right: Average number of nuclei per microliter of carrier fluid; Endoreplication index (EI), for defence (EIDEFENCE) and for growth (EIGROWTH) of the analysed plant samples from different plant systems exposed to the various treatments mentioned in the table. Data are expressed relative to the first listed condition of each experiment (reference). […] In particular, the toxic effect of Cd in T. nicotiana (see Experiment A1.1) was confirmed by the present invention since EIGROWTH decreased and EIDEFENCE increased in the plant seedlings. Mitigation of this Cd-induced growth inhibition by biochar was confirmed (see Experiment A1.2). […] To optimize the growing medium for A. thaliana, different dilutions of MS medium were tested (see Experiment A1.4). […] The toxic effects of ACC (see Experiment A1.8), IAA (see Experiment A1.9) and the osmoticum PEG (simulating drought stress, see Experiment A1.10) on A. thaliana were confirmed by the present invention since EIGROWTH decreased and EIDEFENCE increased.

Capsicum annuum = Capsicum annuum hypocotyls with roots, flow cytometry (Experiment A1.3); assay type: in vivo
Description: as §1

[2] = Cd 10-50 μM, 4C as tipping point
[3] = toxic treatments, Experiments A1.8-A1.11

Question: For `[Cd]` [Cd, cadmium], which EI (A. thaliana leaves; leaf 1, 1-10 μM Cd for 3 days or more (14-days-old plants or older)) is on record?
Answer: dose-dependent decrease

Question: What about the EIDEFENCE (A. thaliana leaves; leaf 1, 1-10 μM Cd, FIG. 11D) of the same compound?
Answer: elevated values

Question: And the EIGROWTH (A. thaliana leaves; leaf 1, 1-10 μM Cd, FIG. 11E)?
Answer: decreased values

Question: And the “EI or ploidy levels” value (A. thaliana leaves; leaf 1, one day of exposure to Cd (12-days-old plants))?
Answer: did not show significant changes

Question: What about the EI (A. thaliana leaves; leaf 3, 1-10 μM Cd, FIG. 12A) of the same compound?
Answer: dose-dependent decrease

Question: What about the EIDEFENCE (A. thaliana leaves; leaf 3, 1-10 μM Cd, FIG. 12D) of the same compound?
Answer: elevated values

Question: What about the EIGROWTH (A. thaliana leaves; leaf 3, 1-10 μM Cd, FIG. 12E) of the same compound?
Answer: decreased values

Question: What about the EI ([1]; 50 μM Cd) of the same compound?
Answer: decrease

Question: And the nuclei concentration ([1]; 50 μM Cd)?
Answer: decrease

Question: And the EIDEFENCE [1, 2]?
Answer: elevated values

Question: What about the EIGROWTH [1, 2] of the same compound?
Answer: decreased values

Question: What about the EIDEFENCE (Tobacco nicotiana) of the same compound?
Answer: increased

Question: And the EIGROWTH (Tobacco nicotiana)?
Answer: decreased

Question: And the toxic effect (Capsicum annuum)?
Answer: could be confirmed

Question: And the EIDEFENCE (Arabidopsis thaliana; 30 μM Cd or more, 10 days)?
Answer: significant and dose-dependent increases

Question: And the “number of nuclei per microliter (plant growth)” value (Arabidopsis thaliana; Cd concentrations from 30 µM or higher, 10 days)?
Answer: significant decrease

Question: What about the EIDEFENCE (Arabidopsis thaliana; in vivo) of the same compound?
Answer: dose-dependent increase

Question: What about the EIGROWTH (Arabidopsis thaliana; in vivo) of the same compound?
Answer: less pronounced dose-dependent decrease

Question: What about the “growth (concentration of nuclei)” value (Arabidopsis thaliana; in vivo) of the same compound?
Answer: dose-dependent growth retardation

Question: What about the “endoreplication index EI” value (Arabidopsis thaliana; seedlings in MS medium, Cd concentration range 0-50 μM, FIG. 10B) of the same compound?
Answer: dose-dependent induction in endoreplication

Question: And the EIDEFENCE (Arabidopsis thaliana; [3])?
Answer: increased

Question: And the EIGROWTH (Arabidopsis thaliana; [3])?
Answer: decreased

Question: `O=C(O)Cc1c[nH]c2ccccc12` [IAA] was tested. Which EIDEFENCE (Arabidopsis thaliana; [3]) did it give?
Answer: increased

Question: And the EIGROWTH (Arabidopsis thaliana; [3])?
Answer: decreased

Question: For `NC1(C(=O)O)CC1` [ACC], which EIDEFENCE (Arabidopsis thaliana; [3]) is on record?
Answer: increased

Question: And the EIGROWTH (Arabidopsis thaliana; [3])?
Answer: decreased

Question: Which results are given for `C=C1C[C@]23C[C@@]1(O)CC[C@H]2[C@@]12C=C[C@H](O)[C@@](C)(C(=O)O1)[C@H]2[C@@H]3C(=O)O` [GA3]?
Answer: growth-stimulating effect by EI indices (Arabidopsis thaliana; Experiments A1.5-A1.7): EIGROWTH increased and/or EIDEFENCE decreased; concentration at which a shift towards toxicity was detected (both EI indices showing an opposite trend) (Arabidopsis thaliana; increasing concentrations, Experiment A1.7): 3 mg I-1
